Results reported in patent US7521192B2, “EDG: modulators of lymphocyte activation and migration” (Rigel Pharmaceuticals, Inc., priority 2001, dated 2009).
Entries after “also recorded” stand apart in the source; their conditions may differ.

Experiments:
Jurkat cells [1] = test: SPP-induced migration assay in Jurkat cells; assay type: cell-based, human
Description: (§1) “Lymphocyte migration” refers to migration of B and T lymphocytes to and from primary and secondary lymphoid organs (e.g., bone marrow, thymus, lymph nodes, spleen, Peyer's patch, and tonsils), the periphery, and non-lymphoid tissues via the blood stream, lymphatic vessels, and by penetration of capillary walls (see, e.g., Paul, Immunology (3rd ed., 1993) (Chapters 4 and 6)). […] SPP and LPA are present in serum and are produced by a number of cells, including platelets and fibroblasts. Ligand-induced lymphocyte migration can be measured using the assay described in FIG. 33A, in which lymphocytes migrate toward the ligand from an upper to a lower chamber. The sphingolipid analog compound 2-amino-2(2-[4-octylphenyl]ethyl)-1,3-propanediol hydrochloride and analogs thereof inhibit such migration. The C-terminus of EDG-1 appears to be involved in migration. Such domains (e.g., the cytoplasmic tail of EDG-1) can be used in high throughput binding assays for compounds that modulate lymphocyte migration.
(§2) As described above, in one embodiment, lymphocyte activation is measured by contacting T cells comprising an EDG target with a potential modulator and activating the cells with an anti-TCR antibody. […] In another embodiment, lymphocyte migration is measured by observing T cell migration from an upper to a lower chamber containing an EDG ligand such as SPP.

primary T cell = test: SPP-induced primary T cell migration; assay type: cell-based; settings: primary T cells
Description: as §1, §2

EDG-1 [2] = target: T1, EDG-1 (Homo sapiens, UniProt P21453); test: EDG-1 wild-type enhanced SPP-induced migration in Jurkat cells; assay type: cell-based; settings: Jurkat cells expressing EDG-1 wild-type
Description: (§3) “Lymphocyte migration” refers to migration of B and T lymphocytes to and from primary and secondary lymphoid organs (e.g., bone marrow, thymus, lymph nodes, spleen, Peyer's patch, and tonsils), the periphery, and non-lymphoid tissues via the blood stream, lymphatic vessels, and by penetration of capillary walls (see, e.g., Paul, Immunology (3rd ed., 1993) (Chapters 4 and 6)). […] SPP and LPA are present in serum and are produced by a number of cells, including platelets and fibroblasts. Ligand-induced lymphocyte migration can be measured using the assay described in FIG. 33A, in which lymphocytes migrate toward the ligand from an upper to a lower chamber.
(§4) As described above, in one embodiment, lymphocyte activation is measured by contacting T cells comprising an EDG target with a potential modulator and activating the cells with an anti-TCR antibody. Modulation of T cell activation is identified by screening for cell surface marker expression, e.g., CD69 expression levels, using fluorescent antibodies and FACS sorting. In another embodiment, lymphocyte migration is measured by observing T cell migration from an upper to a lower chamber containing an EDG ligand such as SPP.

EDG-1 [3] = target: T1, EDG-1; test: EDG-1 wild-type induced CD69 inhibition in Jurkat cells; assay type: cell-based; settings: Jurkat cells expressing EDG-1 wild-type
Protocol: Stimulation: For CD69 upregulation experiments, tTA-Jurkat cells were split to 2.5×10^5 cells/ml 24 hours prior to stimulation. Cells were spun and resuspended at 5×10^5 cells/ml in fresh complete RPMI medium in the presence of 100 ng/ml [MUT] (anti-Jurkat clonotypic TCR) or 5 ng/ml PMA hybridoma supernatant for 20-26 hours at 37° C., and then assayed for surface CD69 expression. Cell surface marker analysis: Jurkat-N cells were stained with an APC-conjugated mouse monoclonal anti-human CD69 antibody (Caltag) at 4° C. for 20 minutes and analyzed using a Facscalibur instrument (Becton Dickinson) with Cellquest software. Cell sorts were performed on a MoFlo (Cytomation).

EDG-1 [4] = target: T1, EDG-1; test: EDG-1 mediated SPP-induced lymphocyte migration; assay type: cell-based; settings: lymphocytes migrating toward ligand from upper to lower chamber
Description: as §3, §4

BJAB cells = test: anti-BCR-induced CD69 upregulation in naive BJAB cells; assay type: cell-based
Jurkat cells [5] = test: anti-TCR-induced CD69 upregulation in naive Jurkat cells; assay type: cell-based, human
Protocol: Stimulation: For CD69 upregulation experiments, tTA-Jurkat cells were split to 2.5×10^5 cells/ml 24 hours prior to stimulation. Cells were spun and resuspended at 5×10^5 cells/ml in fresh complete RPMI medium in the presence of 100 ng/ml […] (anti-Jurkat clonotypic TCR) or 5 ng/ml PMA hybridoma supernatant for 20-26 hours at 37° C., and then assayed for surface CD69 expression. Cell surface marker analysis: Jurkat-N cells were stained with an APC-conjugated mouse monoclonal anti-human CD69 antibody (Caltag) at 4° C. for 20 minutes and analyzed using a Facscalibur instrument (Becton Dickinson) with Cellquest software. Cell sorts were performed on a MoFlo (Cytomation).

EDG-1 [6] = target: T1, EDG-1; test: anti-BCR induced CD69 upregulation in BJAB cells expressing TIG-EDG-1 constructs; assay type: cell-based
EDG-1 [7] = test: as above; assay type: cell-based

T1 sequence (P21453 whole entry): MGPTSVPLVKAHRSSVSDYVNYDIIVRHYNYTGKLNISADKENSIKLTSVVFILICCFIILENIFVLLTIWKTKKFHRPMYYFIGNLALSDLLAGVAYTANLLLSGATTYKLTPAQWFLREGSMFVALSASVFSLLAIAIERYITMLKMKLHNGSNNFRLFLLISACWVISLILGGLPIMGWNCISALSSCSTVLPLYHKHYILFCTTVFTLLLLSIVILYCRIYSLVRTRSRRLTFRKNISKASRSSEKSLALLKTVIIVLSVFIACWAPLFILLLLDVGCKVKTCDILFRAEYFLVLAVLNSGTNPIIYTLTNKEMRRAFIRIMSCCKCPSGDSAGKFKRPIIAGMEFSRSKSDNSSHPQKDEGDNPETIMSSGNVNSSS

| SMILES | effect on SPP-induced migration (Jurkat cells [1]; Jurkat cells) | effect on SPP-induced primary T cell migration (primary T cell) | effect on EDG-1 wild-type enhanced SPP-induced migration (EDG-1 [2]) | effect on EDG-1 wild-type induced CD69 inhibition (EDG-1 [3]) | effect on EDG-1 mediated SPP-induced (ligand-induced) lymphocyte migration (EDG-1 [4]; listed as 2-amino-2(2-[4-octylphenyl]ethyl)-1,3-propanediol hydrochloride) | effect on EDG-1 mediated SPP-induced (ligand-induced) lymphocyte migration (EDG-1 [4]; hydrochloride) | effect on anti-BCR-induced CD69 upregulation (BJAB cells; in the presence of CS-FBS) | effect on anti-BCR-induced CD69 upregulation (BJAB cells; regular serum) | effect on anti-TCR-induced CD69 upregulation (Jurkat cells [5]; in the presence of CS-FBS) | effect on anti-TCR-induced CD69 upregulation (Jurkat cells [5]; regular serum) | effect on wild-type EDG-1 inhibition of anti-BCR induced CD69 upregulation (EDG-1 [6]; BJAB cells expressing wild-type EDG-1) | dose dependence of wild-type EDG-1 inhibition of anti-BCR induced CD69 upregulation (EDG-1 [6]; cells overexpressing wild-type EDG-1, SPP added) | effect on anti-BCR induced CD69 upregulation (EDG-1 [7]; BJAB cells expressing TIG vector) | effect on the inhibition of EDG-1 mediated anti-BCR induced CD69 upregulation (EDG-1 [7]; BJAB cells, FIGS. 29 and 30) | migration of Jurkat cells (Jurkat cells [1]; Jurkat cells migrating toward ligand) |
| --- | --- | --- | --- | --- | --- | --- | --- | --- | --- | --- | --- | --- | --- | --- | --- |
| CCCCCCCCc1ccc(CCC(N)(CO)CO)cc1.Cl [FTY720, 2-amino-2(2-[4-octylphenyl]ethyl)-1,3-propanediol hydrochloride] | no effect | inhibits | inhibits | no effect | inhibit | blocked | – | – | – | – | – | – | – | – | – |
| CCCCCCCCCCCCC/C=C/[C@@H](O)[C@@H](N)COP(=O)(O)O [SPP, sphingosine-1-phosphate] | – | – | – | – | – | – | no effect | no effect | no effect | no effect | potentiates | dose-dependent manner; also recorded: dose dependent manner | no effect | no effect | induced migration |
